From patent publication US8802675B2, “Neuroprotective multifunctional compounds and pharmaceutical compositions comprising them” (priority 2009, dated 2014)
“And” between values parts separate entries of the source, which are not always exact repeats. Identical values can stand only once. Like-named read-outs stand apart in the source and are kept apart here.

Assays:
[1] = molecular target: T1, butyrylcholinesterase (BuChE) (Rattus norvegicus, UniProt Q9JKC1); assay: Butyrylcholinesterase inhibition in rat brain homogenates (Ellman); assay type: biochemical; details: mean SEM, n=3 in triplicates
T1 construct: total cholinesterase (ChE) and butyrylcholinesterase (BuChE) activities in rat brain homogenates; from tissue; host or cells: brain homogenate (10% w/v) of adult Wistar rats
T1 sequence (Q9JKC1 24-597): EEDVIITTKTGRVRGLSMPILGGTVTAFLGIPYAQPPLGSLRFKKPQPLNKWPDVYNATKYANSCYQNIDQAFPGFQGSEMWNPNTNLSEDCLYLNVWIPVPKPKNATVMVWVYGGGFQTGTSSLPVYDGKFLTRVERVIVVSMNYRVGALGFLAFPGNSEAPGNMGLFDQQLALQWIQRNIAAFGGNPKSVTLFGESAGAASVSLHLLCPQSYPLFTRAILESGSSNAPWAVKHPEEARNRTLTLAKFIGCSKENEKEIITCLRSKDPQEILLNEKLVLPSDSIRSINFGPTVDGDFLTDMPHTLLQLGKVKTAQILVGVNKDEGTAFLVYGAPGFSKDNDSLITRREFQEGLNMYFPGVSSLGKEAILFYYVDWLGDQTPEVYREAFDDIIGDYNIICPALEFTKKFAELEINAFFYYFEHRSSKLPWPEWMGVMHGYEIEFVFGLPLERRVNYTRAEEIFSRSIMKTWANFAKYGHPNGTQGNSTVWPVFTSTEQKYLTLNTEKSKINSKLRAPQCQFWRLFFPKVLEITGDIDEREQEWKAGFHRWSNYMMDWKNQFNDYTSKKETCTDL
Protocol: (§1) Cholinesterase activity was determined in rat brain homogenate following incubation with varying concentrations of the multifunctional pro-chelators of the invention (also referred to herein as “carbamates”).
(§2) Ellman's colorimetric method was adapted for determination of total cholinesterase (ChE) and butyrylcholinesterase (BuChE) activities in rat brain homogenates. Brain tissue from adult Wistar rats was homogenized at 2% w/v (or 10% w/v, for BuChE) in 0.1 M sodium phosphate buffer, pH 7.4, with added NaCl 58.5 g/l and Triton X-100 0.05% v/v. Aliquots of homogenate (20 μl) were incubated with the test compounds for designed time intervals in phosphate buffer pH 7.4, before addition of 5,5′-dithiobis(2-nitrobenzoic) acid and either 1 mM acetylthiocholine iodide or 10 mM butyrylthiocholine iodide (Sigma, St. Louis, Mo.). The reaction was run at 37° C. in a final volume of […] in 96-well microplates and was followed at 412 nm for 5 min with a plate reader. In every experiment, cholinesterase-independent (nonspecific) substrate hydrolysis was determined by including one experimental group treated with tacrine 30 μM. Appropriate tissue and reagent blanks were also included. Reaction velocities were determined in three or four replicates per condition; these were averaged and expressed as percent activity relative to control (solvent), after subtracting the rate of nonspecific hydrolysis.
(§3) The results are the mean SEM, n=3 in triplicates. ND—not determined.

[2] = molecular target: T2, rat brain cholinesterase (total ChE) (Rattus norvegicus, UniProt P37136); assay: Kinetics of irreversible cholinesterase inhibition (Kitz-Wilson); assay type: biochemical
T2 construct: rows headed: Ki (dissociation constant for EI); other: rat brain total ChE; mean of 3-4 experiments; k+2 (carbamylation rate constant); other: from ki; rate of carba
T2 sequence (P37136 32-614): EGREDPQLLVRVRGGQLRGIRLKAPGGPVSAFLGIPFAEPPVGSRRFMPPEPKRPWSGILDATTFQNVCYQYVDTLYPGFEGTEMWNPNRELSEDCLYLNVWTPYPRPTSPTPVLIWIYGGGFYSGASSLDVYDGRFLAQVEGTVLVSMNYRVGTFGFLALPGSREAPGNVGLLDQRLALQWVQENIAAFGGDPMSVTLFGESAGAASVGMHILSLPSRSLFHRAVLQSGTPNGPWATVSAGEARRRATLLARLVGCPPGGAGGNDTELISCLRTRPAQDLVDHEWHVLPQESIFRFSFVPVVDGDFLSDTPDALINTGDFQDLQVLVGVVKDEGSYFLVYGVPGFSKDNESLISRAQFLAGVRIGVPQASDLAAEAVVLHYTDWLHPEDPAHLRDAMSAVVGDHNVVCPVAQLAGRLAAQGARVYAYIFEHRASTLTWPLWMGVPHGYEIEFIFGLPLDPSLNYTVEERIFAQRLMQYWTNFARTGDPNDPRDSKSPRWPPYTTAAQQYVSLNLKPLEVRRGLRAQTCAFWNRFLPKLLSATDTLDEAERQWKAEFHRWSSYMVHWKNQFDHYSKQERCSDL
Protocol: To determine kinetic constants of irreversible inhibition, cholinesterase from rat brain homogenates was incubated with the multifunctional compounds of the invention for designed time intervals in phosphate buffer pH 7.4.
The residual cholinesterase activity was immediately measured with the Ellman's colorimetric method after addition of 5,5′-dithiobis(2-nitrobenzoic) acid and 1 mM acetylthiocholine iodide. The inhibition kinetics were assessed according to Kitz-Wilson equation:
[formula] wherein: E represents the enzyme; I represents the intact carbamate (inhibitor); EI is the initial reversible enzyme complex; E* is the carbamylated enzyme; Ki represents the dissociation constant for EI; k+2 is the carbamylation rate constant and k+3 is the decarbamylation rate constant; kapp is the pseudo-first-order inhibition rate constant; ki, the second-order rate inhibition constant, is approximated by k+2/Ki. Under experimental condition [I]>>[E0].
According to equation (2), the logarithm of the ratio of the residual cholinesterase activity (E) and the initial cholinesterase activity (E0) is plotted against the time of incubation. The slopes of the lines representing kapp were determined by linear regression.
The slopes of the lines represent the pseudo-first-order inhibition rate constant (kapp) determined from linear regression analysis. […] The carbamylation rate constant (k+2) was obtained from the y-intercept, and the dissociation constant ([…] was obtained from the slope of the line multiplied by k+2 as described in Materials and Methods.
From these lines, the values of kapp were calculated based on Equation (2) of the Kitz-Wilson equations (see Material and Methods). […] The carbamylation rate constant k+2 is a measure of inactivation of ChE.

rat brain MAO-A = molecular target: T3, rat brain MAO-A (Rattus norvegicus, UniProt P21396); assay: biochemical; details: IC50 MAO-A, rat brain homogenate in vitro; mean SEM, n=3 in triplicates
T3 construct: from tissue; host or cells: rat brain homogenate
T3 sequence (P21396 1-526): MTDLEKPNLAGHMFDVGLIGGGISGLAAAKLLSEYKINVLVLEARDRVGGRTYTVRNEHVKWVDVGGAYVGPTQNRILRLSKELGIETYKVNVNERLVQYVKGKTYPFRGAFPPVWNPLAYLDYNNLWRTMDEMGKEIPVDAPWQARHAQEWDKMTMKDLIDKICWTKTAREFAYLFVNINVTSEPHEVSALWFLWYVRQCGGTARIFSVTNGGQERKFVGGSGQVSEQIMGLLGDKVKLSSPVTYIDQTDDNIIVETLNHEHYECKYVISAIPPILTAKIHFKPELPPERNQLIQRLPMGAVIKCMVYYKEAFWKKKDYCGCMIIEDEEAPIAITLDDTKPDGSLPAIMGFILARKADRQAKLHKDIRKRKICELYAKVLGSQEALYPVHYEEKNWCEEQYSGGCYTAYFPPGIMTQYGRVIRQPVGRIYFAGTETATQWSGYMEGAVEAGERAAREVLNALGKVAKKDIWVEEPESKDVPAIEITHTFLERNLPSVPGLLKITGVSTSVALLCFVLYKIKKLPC
Protocol: (§4) Rats were decapitated and the brains were quickly taken into a pre-weighted ice-cold sucrose buffer (10 mM Tris-HCl buffer, pH 7.4, containing 0.32 M sucrose), and their weights were measured. The brains were homogenized at 0-4° C. in 0.32 M sucrose (one part tissue to 20 parts sucrose) in a Teflon glass homogenizer. The resultant homogenates were used to determine MAO activity. Protein concentration was determined with Bradford reagent at 595 nm, using bovine serum albumin as a standard.
(§5) The activity of MAO-A and MAO-B were determined by the adapted method of Tipton & Youdim (Tipton et al. 1983). Briefly, the multifunctional compound tested was added to a suitable dilution of the enzyme preparation (70 μg MAO-B and 150 μg MAO-A) in 0.05 M phosphate buffer (pH 7.4). The mixture was incubated together with 0.05 μM 1-deprenyl, a specific inhibitor of MAO-B (for determination of MAO-A activity in the presence of the test compound) or 0.05 μM clorgyline a specific inhibitor of MAO-A (for determination of MAO-B activity). […] The reaction was stopped with 2M ice-cold citric acid, and the radioactive metabolites (5-hydroxytryptaldehyde and phenylacetaldehyde) were extracted by addition of 2 ml of ethylacetate/toluene (1:1 vol/vol). The radioactivity contained in the organic phase was determined by liquid-scintillation counting in cpm units.
(§6) MAO-A and MAO-B activities were determined in rat brain homogenate in vitro following incubation with varying concentrations of the test compounds.
(§7) The results are the mean SEM, n=3 in triplicates.

rat brain MAO-B = molecular target: T4, rat brain MAO-B (Rattus norvegicus, UniProt P19643); assay: biochemical; details: IC50 MAO-B, rat brain homogenate in vitro; mean SEM, n=3 in triplicates
T4 construct: from tissue; host or cells: rat brain homogenate
T4 sequence (P19643 1-520): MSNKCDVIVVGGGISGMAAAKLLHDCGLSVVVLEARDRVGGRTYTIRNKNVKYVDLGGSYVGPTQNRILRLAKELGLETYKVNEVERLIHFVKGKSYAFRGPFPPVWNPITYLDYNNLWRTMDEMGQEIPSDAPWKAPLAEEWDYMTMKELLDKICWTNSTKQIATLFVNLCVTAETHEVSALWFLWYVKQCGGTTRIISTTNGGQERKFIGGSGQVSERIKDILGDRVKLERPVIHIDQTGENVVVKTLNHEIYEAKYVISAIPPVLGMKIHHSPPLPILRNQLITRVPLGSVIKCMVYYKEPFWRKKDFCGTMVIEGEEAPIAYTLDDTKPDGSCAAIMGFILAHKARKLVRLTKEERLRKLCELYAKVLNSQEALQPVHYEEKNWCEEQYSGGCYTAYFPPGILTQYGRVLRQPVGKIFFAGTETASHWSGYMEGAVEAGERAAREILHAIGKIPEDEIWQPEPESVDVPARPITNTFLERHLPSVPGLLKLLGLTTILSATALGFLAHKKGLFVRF
Protocol: as §4, §5, §6, §7

[3] = molecular target: T5, total cholinesterase (ChE) (Rattus norvegicus, UniProt P37136); assay: Total cholinesterase inhibition in rat brain homogenates (Ellman); assay type: biochemical; details: read-out: percent inhibition Total ChE
T5 sequence (P37136 32-614): T2 sequence (P37136 32-614)
Protocol: as §1, §2, §3

[4] = system: rat brain cholinesterase (total ChE); details: cited from earlier work

Structure (SMILES) | IC50 [1] | potency in inhibiting ChE relative to rivastigmine ([2]; from ki) | kinact ([2]; pH 7.4, read-out: k+2 (carbamylation rate constant)) | kinact/KI ([2]; pH 7.4, read-out: ki (second-order rate inhibition constant, approximated by k+2/Ki)) | IC50 (rat brain MAO-A) | IC50 (rat brain MAO-B) | inhibition at 1 µM [3] | k+2 (carbamylation rate constant) ([4]; Data from ref.) | ki (second-order rate inhibition constant) ([4]; Data from ref.) | k+2 (carbamylation rate constant) ([4]; Data from ref., listed as rivastigmine) | Ki ([4]; rivastigmine, data from ref., read-out: Ki, affinity to total ChE)
C#CCN(C)Cc1ccc(OC(=O)N2CCCCC2)c2ncccc12 [Compound 6, 5-((methyl(propargyl)amino)methyl)quinolin-8-yl piperidine-1-carboxylate] | 45700 ± 5940 nM | as potent | 0.00117 s⁻¹ | 77.3 M⁻¹ s⁻¹ | 4.7 to 20 nM and 4.7 nM | 1860 nM | – | – | – | – | –
CCN(C)C(=O)Oc1cccc([C@H](C)N(C)C)c1 [Rivastigmine, (S)-N-ethyl-N-methyl-3-[1-(dimethylamino)ethyl]-phenyl carbamate] | – | – | – | – | – | – | 62% | 0.25^b min^−1 | 4.54 × 10^3b M^−1 min^−1 | 0.25 min⁻¹ | 55000 nM
